The conditions of data set [1]: cited from earlier work.
For data set [2] the following is noted: cited from earlier work. The source holds these as a separate data set.
The conditions of data set [3]: cited from earlier work. This is another data set of the same source.
The subject of data set [4] is elicited peritoneal macrophages isolated from apoE-/- mice. The data set can be described thus: Cholesterol efflux assay in cholesterol-loaded elicited peritoneal macrophages. The class given is cell-based, mouse. Conditions: 1.5 μM. The method, then:
Cholesterol efflux assays. Human apo A-I was prepared as described before (25). Low density lipoprotein (LDL, 1.019<density<1.063 g/mL) and subfraction 3 of high density lipoprotein (HDL3, 1.125<density<1.21 g/mL) were isolated by sequential ultracentrifugation of human plasma. Lipoproteins were extensively dialyzed against phosphate buffered saline (PBS) and protein content measured with a CBQCA Protein Quantitation Kit (Molecular Probes, Eugene, Oreg.). The quality and purity of the lipoprotein preparations was confirmed by SDS-PAGE by the identification of appropriate apolipoproteins. Acetylated LDL (AcLDL) was prepared according to (26). Dulbeco's Modified Eagle medium (DMEM), L-glutamine, Penicillin-Streptomycin solutions, fetal bovine serum (FBS), and PBS were purchased from the Invitrogen Corporation (Carlsbad, Calif.). […]
For measurement of cholesterol efflux, aliquots of the media were collected at 6 and 18 h, and tritium cpm measured by scintillation counting. […] Free and esterified cholesterol content was measured prior to and after efflux under the various treatment conditions. After extraction of lipids, cells were lysed with 0.2 N NaOH and protein content determined by Lowry assay. Total cholesterol and free cholesterol were determined by using kits from Roche Applied Science. Cholesteryl ester content was determined by subtracting free cholesterol from total cholesterol.

For data set [5] the following is noted: mouse; cited from earlier work.
[6] abbreviates: concentration 1M (values in parentheses).

Where two headings read alike, the source gives them in different places.

The text below walks through data of patent publication US7947307B2, “Methods and compositions for imaging” (Mount Sinai School of Medicine of New York University, priority 2004, dated 2011).

Consider `O=C([O-])CN1CCN(CC(=O)[O-])CCN([C@H](CO)[C@H](O)CO)CCN(CC(=O)[O-])CC1.[Gd+3]` (racemic) [Gadobutrol, Gd-DO3A-butrol], for which the figures for the Viscosity in data set [1] (concentration 0.5M) and in data set [1] (setting [6]) were 1.4 cP and “(3.7) cP”, respectively. In addition, the Osmolality is reported as 0.57 osmol/kg in data set [2] (concentration 0.5M) and “(1.39) osmol/kg” in data set [2] (setting [6]). Moreover, in data set [3], the r1, 0.5 T 37° C. is 3.6 mM⁻¹ s⁻¹.

As for `O=C(Nc1ccccc1)c1cc([N+](=O)[O-])ccc1Cl` [GW9662], the “cholesterol efflux to HDL” value in data set [4] ([3H]cholesterol-AcLDL loaded macrophages with F-1394, acceptor HDL3 50 μg/mL) is recorded as “did not affect”. The “cholesterol efflux to apoA-I” value in data set [4] ([3H]cholesterol-AcLDL loaded macrophages with F-1394, acceptor apoA-I 50 μg/mL) is “did not affect”.

Take `CNC[C@H](O)[C@@H](O)[C@H](O)[C@H](O)CO.CNC[C@H](O)[C@@H](O)[C@H](O)[C@H](O)CO.O=C([O-])CN(CCN(CC(=O)[O-])CC(=O)O)CCN(CC(=O)O)C(COCc1ccccc1)C(=O)[O-].[Gd+3]` (centres unmarked) [Gadobenate, Gd-BOPTA]: the Viscosity in data set [1] (concentration 0.5M) is given as 5.3 cP. Further, the Osmolality in data set [2] (concentration 0.5M) is 1.97 osmol/kg. Further, the r1, 0.5 T 37° C. in data set [3] is 4.4 mM⁻¹ s⁻¹.

Turning to `CNC(=O)CN(CCN(CCN(CC(=O)[O-])CC(=O)NC)CC(=O)[O-])CC(=O)[O-].[Gd+3]` [Gadodiamide, Gd-DTPA-BMA], the Viscosity is reported as 1.4 cP in data set [1] (concentration 0.5M) and “(3.9) cP” in data set [1] (setting [6]). In addition, the Osmolality in data set [2] (concentration 0.5M) is listed as 0.79 osmol/kg; in data set [2] (setting [6]) it was “(1.90) osmol/kg”. Also, the r1, 0.5 T 37° C. in data set [3] is 3.9 mM⁻¹ s⁻¹.

`CNC[C@H](O)[C@@H](O)[C@H](O)[C@H](O)CO.CNC[C@H](O)[C@@H](O)[C@H](O)[C@H](O)CO.O=C([O-])CN(CCN(CC(=O)[O-])CC(=O)O)CCN(CC(=O)[O-])CC(=O)O.[Gd+3]` [Gadopenetate, Gd-DTPA]: the Viscosity in data set [1] (concentration 0.5M) is recorded as 2.9 cP. In data set [2] (concentration 0.5M), the Osmolality is 1.96 osmol/kg. Also, in data set [3], the r1, 0.5 T 37° C. is 3.8 mM⁻¹ s⁻¹.

Take `O=C([O-])CN1CCN(CC(=O)[O-])CCN(CC(=O)[O-])CCN(CC(=O)[O-])CC1.[Gd+3]` [Gadoterate, Gd-DOTA]: the Viscosity is 2.0 cP in data set [1] (concentration 0.5M) and “(11.3) cP” in data set [1] (setting [6]). Further, the Osmolality was 1.35 osmol/kg in data set [2] (concentration 0.5M) and “(4.02) osmol/kg” in data set [2] (setting [6]). For the same compound, the r1, 0.5 T 37° C. in data set [3] is 3.6 mM⁻¹ s⁻¹.

As for `Cc1[nH+]cc(COP(=O)([O-])[O-])c(CN(CCN(CC(=O)[O-])Cc2c(COP(=O)([O-])O)c[nH+]c(C)c2O)CC(=O)[O-])c1O.[Mn].[Na+].[Na+].[Na+]` [Mangafodipir, Mn-DPDP], in data set [1] (concentration 0.01M), the Viscosity is on record as 0.7 cP. In data set [2] (concentration 0.01M), the Osmolality was 0.29 osmol/kg. The r1, 0.5 T 37° C. in data set [3] was 1.9 mM⁻¹ s⁻¹.

With Gd-DTPA-BMEA [Gadoversetamide], the Viscosity in data set [1] (concentration 0.5M) is 2.0 cP. The Osmolality in data set [2] (concentration 0.5M) was 1.11 osmol/kg. The r1, 0.5 T 37° C. in data set [3] is 4.7 mM⁻¹ s⁻¹.

As for Gd-HPDO3A [Gadoteridol], the values for the Viscosity in data set [1] (concentration 0.5M) and in data set [1] (setting [6]) were 1.3 cP and “(3.9) cP”, respectively. The values for the Osmolality in data set [2] (concentration 0.5M) and in data set [2] (setting [6]) were 0.63 osmol/kg and “(1.91) osmol/kg”, respectively. Also, the r1, 0.5 T 37° C. in data set [3] is 3.7 mM⁻¹ s⁻¹.

Take HDL-apoAI: apolipoprotein AI of HDL: the “t1/2 in the circulation” value in data set [5] is recorded as “roughly 10 h”.
